In US9381281B2, “Drug eluting mesh to prevent infection of indwelling transdermal devices” (TYRX, INC., priority 2011, dated 2016) one finds myofibroblast formation and MIC data, which are given here for three compounds.

In brackets after ≈: the same amount, converted by molar mass.

For one experiment, the system named is myofibroblast formation. Conditions: animal studies of capsular contracture with breast implants (Ajmal et al. 2003); cited from earlier work.
The test system of experiment [1] is Methicillin-resistant Staphylococcus aureus ATCC 33591. Description: Broth dilution MIC. It is filed as cell-based. Conditions: ATCC 33591 / MRSA, read-out: Minimum Inhibitory Concentration. The text has this: (§1) Establishing the MIC of antimicrobials is a necessary step in the process of establishing effective use concentrations. Approved standards for this activity with antibiotics are published by NCCLS. These standards are primarily intended for use in clinical settings with patient isolates. However, they represent a consensus methodology for best practice in determining MICs that are reproducible and defensible. The principles upon which they are based provide a sound framework for determining the MIC for the test.
(§2) The broth dilution method was used to measure quantitatively the in vitro activity of an antimicrobial agent against a given microbial isolate. To perform the test, a series of tubes were prepared with a broth to which various concentrations of the antimicrobial agent were added. The tubes were then inoculated with a standardized suspension of the test organism. After incubation the tubes were examined and the minimal inhibitory concentration (MIC) was determined.
(§3) The following organism were used: Acinetobacter baumanii A TCC 19606; Staphylococcus epidermidis A TCC 14990; Staphylococcus aureus ATCC 6538; Methicillin-resistant Staphylococcus aureus ATCC 33591; Escherichia coli ATCC 8739; Staphylococcus capitis ATCC 35661; or Staphylococcus schleiferi ATCC 43808.

The subject of experiment [2] is Staphylococcus schleiferi ATCC 43808. The experiment is described as follows: Broth dilution MIC. It is filed as cell-based. The conditions noted are these: ATCC43808, read-out: Minimum Inhibitory Concentration.
From the text: as §1, §2, §3

For experiment [3], the system named is Escherichia coli ATCC 8739. Description: Broth dilution MIC. In kind it is cell-based. Conditions: ATCC8739, E. coli, read-out: Minimum Inhibitory Concentration.
From the text: as §1, §2, §3
A general note: Broth dilution looks for growth in wells or tubes with falling amounts of substance.

The test system of experiment [4] is Acinetobacter baumanii A TCC 19606. Description: Broth dilution MIC. In kind it is cell-based. The conditions noted are these: Acinetobacter baumannii, ATCC19606, read-out: Minimum Inhibitory Concentration.
From the text: as §1, §2, §3

The test system of experiment [5] is Staphylococcus capitis ATCC 35661. Description: Broth dilution MIC. It is filed as cell-based. Conditions: ATCC35661, S. capitis, read-out: Minimum Inhibitory Concentration.
From the text: as §1, §2, §3

In experiment [6] the test system is Staphylococcus aureus ATCC 6538. Description: Broth dilution MIC. It is filed as cell-based. Conditions: ATCC6538, S. aureus, read-out: Minimum Inhibitory Concentration.
From the text: as §1, §2, §3

Experiment [7] relates to Staphylococcus epidermidis A TCC 14990. Description: Broth dilution MIC. In kind it is cell-based. Conditions: ATCC14990, S. epidermidis, read-out: Minimum Inhibitory Concentration.
From the text: as §1, §2, §3

Consider `O=S(=O)([O-])CCS.[Na+]` [Mesna, sodium 2-mercaptoethane sulfonate], for which the myofibroblast formation entry in the experiment with myofibroblast formation was “diminish myofibroblast formation”.
Take `CO[C@H]1/C=C/O[C@@]2(C)Oc3c(C)c(O)c4c(O)c(c(/C=N/N5CCN(C)CC5)c(O)c4c3C2=O)NC(=O)/C(C)=C\C=C\[C@H](C)[C@H](O)[C@@H](C)[C@@H](O)[C@@H](C)[C@H](OC(C)=O)[C@@H]1C` [Rifampin]: the MIC in experiment [1] worked out at 2.06 µg/mL (≈ 2.5 µM); in experiment [2], 0.016 µg/mL (≈ 0.0194 µM); in experiment [3], 2.06 µg/mL (≈ 2.5 µM); in experiment [4], 0.129 µg/mL (≈ 0.157 µM); in experiment [5], 0.016 µg/mL (≈ 0.0194 µM); in experiment [6], 0.016 µg/mL (≈ 0.0194 µM). Also, the MIC in experiment [7] turned out to be 0.016 µg/mL (≈ 0.0194 µM).
In the case of `CN(C)c1ccc(O)c2c1C[C@H]1C[C@H]3[C@H](N(C)C)C(O)=C(C(N)=O)C(=O)[C@@]3(O)C(O)=C1C2=O` [Minocycline], the MIC in experiment [1] is 2.23 µg/mL (≈ 4.88 µM); in experiment [2] it was 0.017 µg/mL (≈ 0.0372 µM); in experiment [3], 2.23 µg/mL (≈ 4.88 µM); in experiment [4], 0.14 µg/mL (≈ 0.306 µM); in experiment [5], 0.017 µg/mL (≈ 0.0372 µM); in experiment [6] it was 0.017 µg/mL (≈ 0.0372 µM). In addition, the MIC in experiment [7] worked out at 0.017 µg/mL (≈ 0.0372 µM).
